According to ChEMBL document CHEMBL1201862, “PubChem BioAssay data set” (2004):
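Growth conditions: 96-well plates. Treatment: test compound, 48 hours, 5 concentrations. Analysis: linear interpolation between bracketing concentrations; unreached endpoints set to highest concentration. Here, GI50 denotes the concentration required for 50% inhibition of growth.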 Calls of active or inactive are those of the source. No stated cut-off is given here; in the data, active = GI50 up to about 1.1 µM and inactive = higher.

Assays:
Assay in all cases: NCI anticancer screen, dose series, 48 h
[1] = system: Malme-3M
[2] = system: ACHN
[3] = system: SK-MEL-2
[4] = system: NCI-H522
[5] = system: OVCAR-5
[6] = system: IGROV-1
[7] = system: LOX IMVI
[8] = system: HOP-92
[9] = system: U-251
[10] = system: CCRF-CEM
[11] = system: HCT-15
[12] = system: HOP-62
[13] = system: SNB-19
[14] = system: HL-60
[15] = system: COLO 205

Structure (SMILES)	GI50 [1]	GI50 [2]	GI50 [3]	GI50 [4]	GI50 [5]	GI50 [6]	GI50 [7]	GI50 [8]	GI50 [9]	GI50 [10]	GI50 [11]	GI50 [12]	GI50 [13]	GI50 [14]	GI50 [15]
C[Si](C)(C)C1(Sc2ccccc2)SCCCS1	70.6 µM (inactive)	35.9 µM (inactive)	58.9 µM (inactive)	17.9 µM (inactive)	> 100 µM (inactive)	41.8 µM (inactive)	31.6 µM (inactive)	32.8 µM (inactive)	38.4 µM (inactive)	14.8 µM (inactive)	27.2 µM	29.7 µM (inactive)	36.9 µM (inactive)	12 µM (inactive)	41.5 µM (inactive)
Cc1ccc2c(c1)C1(C)OC(CC(N)C1O)O2 (stereo unspecified)	> 100 µM (inactive)	> 100 µM (inactive)	> 100 µM (inactive)	> 100 µM (inactive)		> 100 µM (inactive)	> 100 µM (inactive)		> 100 µM (inactive)	> 100 µM (inactive)	> 100 µM	> 100 µM (inactive)	> 100 µM (inactive)	> 100 µM (inactive)	> 100 µM (inactive)
CC#C[C@@]1(O)CCCCC1O (stereo partly specified)	> 100 µM (inactive)	> 100 µM (inactive)	> 100 µM (inactive)	> 100 µM (inactive)		> 100 µM (inactive)	> 100 µM (inactive)	> 100 µM (inactive)	> 100 µM (inactive)	> 100 µM (inactive)	> 100 µM	> 100 µM (inactive)	> 100 µM (inactive)	> 100 µM (inactive)	> 100 µM (inactive)
CCN(CC)CC(C)C(=O)/C=C/c1ccc(C)cc1 (stereo unspecified)	2.81 µM (inactive)	2.06 µM (inactive)			14.8 µM (inactive)	2.2 µM (inactive)	1.29 µM (inactive)	2.32 µM (inactive)	1.76 µM (inactive)	3.05 µM (inactive)	2.53 µM	18.4 µM (inactive)	16.7 µM (inactive)	3.48 µM (inactive)	1.55 µM (inactive)
CCSCN(C)c1nc(N(C)C)nc(N(C)C)n1	34.3 µM (inactive)	> 100 µM (inactive)	> 100 µM (inactive)	35 µM (inactive)	> 100 µM (inactive)	78.7 µM (inactive)	41.3 µM (inactive)	49.2 µM (inactive)	54.2 µM (inactive)	48.1 µM (inactive)	42.5 µM	98.2 µM (inactive)	78 µM (inactive)	29.9 µM (inactive)	75.2 µM (inactive)
Cc1ccc(SSc2ccc(C)cc2C(=O)O)c(C(=O)O)c1	> 100 µM (inactive)	> 100 µM (inactive)	> 100 µM (inactive)	> 100 µM (inactive)	> 100 µM (inactive)		> 100 µM (inactive)	> 100 µM (inactive)	> 100 µM (inactive)	> 100 µM (inactive)		> 100 µM (inactive)	> 100 µM (inactive)	> 100 µM (inactive)	> 100 µM (inactive)
COc1ccc(C(=O)O)c(Br)c1OCc1ccccc1		> 100 µM (inactive)	> 100 µM (inactive)	> 100 µM (inactive)	> 100 µM (inactive)	> 100 µM (inactive)	> 100 µM (inactive)	> 100 µM (inactive)	> 100 µM (inactive)	> 100 µM (inactive)	> 100 µM	> 100 µM (inactive)	> 100 µM (inactive)	> 100 µM (inactive)	> 100 µM (inactive)
CCc1cccc(C)c1NC(=O)CCc1nnc2s/c(=C\c3cccc4ccccc34)c(=O)n12	> 100 µM (inactive)	> 100 µM (inactive)	> 100 µM (inactive)	> 100 µM (inactive)	> 100 µM (inactive)	> 100 µM (inactive)	80.7 µM (inactive)	> 100 µM (inactive)	> 100 µM (inactive)	92.9 µM (inactive)	89.1 µM	> 100 µM (inactive)	> 100 µM (inactive)	44.6 µM (inactive)	> 100 µM (inactive)
CC(=O)Oc1c2c(c(O)c3ccccc13)C(n1cnc3c(ncn3C3OC(CO)C4OC(C)(C)OC43)c1=N)CCC2 (stereo unspecified)	11.2 µM (inactive)	16.5 µM (inactive)	15.4 µM (inactive)	5.87 µM (inactive)	21.2 µM (inactive)	20.2 µM (inactive)	4.81 µM (inactive)	22.6 µM (inactive)	18.9 µM (inactive)	5.24 µM (inactive)	14.8 µM	16.7 µM (inactive)	16 µM (inactive)	4.49 µM (inactive)	16.9 µM (inactive)
CC(C#N)c1cn(S(=O)(=O)c2ccccc2)c2ccccc12 (stereo unspecified)	35.7 µM (inactive)	33.3 µM (inactive)	37.1 µM (inactive)	27.7 µM (inactive)	> 100 µM (inactive)	78.5 µM (inactive)		12.4 µM (inactive)	> 100 µM (inactive)	48.8 µM (inactive)	53.6 µM	37.5 µM (inactive)	42.9 µM (inactive)	26 µM (inactive)	> 100 µM (inactive)
COc1ccc2ccc([Se]c3ccc4ccc(OC)cc4c3)cc2c1	> 100 µM (inactive)	29.2 µM (inactive)	> 100 µM (inactive)	84.5 µM (inactive)		> 100 µM (inactive)	> 100 µM (inactive)	> 100 µM (inactive)	29.9 µM (inactive)	49.8 µM (inactive)	> 100 µM	> 100 µM (inactive)	23.3 µM (inactive)	> 100 µM (inactive)	> 100 µM (inactive)
CC(=O)Oc1c(C)n(CCCl)ccc1=O	> 100 µM (inactive)	69.3 µM (inactive)	> 100 µM (inactive)	> 100 µM (inactive)	56.6 µM (inactive)		> 100 µM (inactive)		> 100 µM (inactive)	84.3 µM (inactive)	34.8 µM	> 100 µM (inactive)	> 100 µM (inactive)	> 100 µM (inactive)	> 100 µM (inactive)
COC1CC(OS(=O)(=O)c2ccc(C)cc2)C(OS(=O)(=O)c2ccc(C)cc2)C(COS(=O)(=O)c2ccc(C)cc2)O1 (stereo unspecified)	2.39 µM (inactive)	2.9 µM (inactive)	6.85 µM (inactive)	3.8 µM (inactive)	11.3 µM (inactive)	4.89 µM (inactive)			3.01 µM (inactive)	74.3 µM (inactive)	5.35 µM	2.18 µM (inactive)	2.22 µM (inactive)	30.1 µM (inactive)	37.9 µM (inactive)
COc1cc(C=O)cc(O)c1O	> 100 µM (inactive)	> 100 µM (inactive)		99.8 µM (inactive)		> 100 µM (inactive)	> 100 µM (inactive)		> 100 µM (inactive)	38.9 µM (inactive)	> 100 µM	> 100 µM (inactive)	> 100 µM (inactive)	46.7 µM (inactive)	> 100 µM (inactive)
Nc1ccc(C(=O)N/C(=C\C=C\c2ccco2)c2nc3c(O)nc(S)nc3[nH]2)cc1	> 100 µM (inactive)	> 100 µM (inactive)	> 100 µM (inactive)	> 100 µM (inactive)	> 100 µM (inactive)	> 100 µM (inactive)		> 100 µM (inactive)	> 100 µM (inactive)	> 100 µM (inactive)	> 100 µM		> 100 µM (inactive)		> 100 µM (inactive)
O=C(Cc1nc2ccccc2o1)C(=O)Nc1ccccc1C(F)(F)F	> 100 µM (inactive)	> 100 µM (inactive)	> 100 µM (inactive)	> 100 µM (inactive)	> 100 µM (inactive)	> 100 µM (inactive)	> 100 µM (inactive)	> 100 µM (inactive)	> 100 µM (inactive)	> 100 µM (inactive)	> 100 µM	> 100 µM (inactive)	> 100 µM (inactive)	> 100 µM (inactive)	> 100 µM (inactive)
CC1=CC(/C=C(\C)CCCc2ccoc2)C2(OC(=O)C(C)=C2O)[C@H]2C1CC[C@@H]2C (stereo partly specified)	26.6 µM (inactive)	19.8 µM (inactive)		13.9 µM (inactive)		32.3 µM (inactive)	21.8 µM (inactive)	17.9 µM (inactive)	25 µM (inactive)	22.1 µM (inactive)	15.5 µM		11.9 µM (inactive)		21.9 µM (inactive)
CC(=O)NC(CCCN(Cc1ccccc1)C(=O)N(C)N=O)C(=O)NCc1ccccc1 (stereo unspecified)	> 100 µM (inactive)	> 100 µM (inactive)	> 100 µM (inactive)	37.1 µM (inactive)	> 100 µM (inactive)	> 100 µM (inactive)	> 100 µM (inactive)	> 100 µM (inactive)	> 100 µM (inactive)	> 100 µM (inactive)	> 100 µM	> 100 µM (inactive)	> 100 µM (inactive)		> 100 µM (inactive)
COC(=O)C(C#CCCCCC#CC(NC(=O)OCc1ccccc1)(C(=O)OC)C(F)(F)F)(NC(=O)OCc1ccccc1)C(F)(F)F (stereo unspecified)	> 100 µM (inactive)	> 100 µM (inactive)		> 100 µM (inactive)	> 100 µM (inactive)	> 100 µM (inactive)	> 100 µM (inactive)	> 100 µM (inactive)	> 100 µM (inactive)	> 100 µM (inactive)	> 100 µM	> 100 µM (inactive)	> 100 µM (inactive)	> 100 µM (inactive)	> 100 µM (inactive)
Cc1cccc(C(C)(C)C)c1NC(=O)CC1Sc2ccccc2NC1=O (stereo unspecified)	> 100 µM (inactive)	57.5 µM (inactive)		> 100 µM (inactive)	> 100 µM (inactive)	> 100 µM (inactive)		3.8 µM (inactive)	25.6 µM (inactive)	55.7 µM (inactive)		> 100 µM (inactive)	> 100 µM (inactive)	46.1 µM (inactive)	24 µM (inactive)
